The source of these data is US9464058B2 (Hoffmann-La Roche Inc., priority 2012, dated 2016).

pEC50: −log10 of the molar value.

What is called pEC50 is −log10 of the EC50, conventionally taken in molar units. Low values mean a large EC50, high ones a small EC50.

Test [1] has as its system rat model of chronic kidney disease. As to conditions: rat CKD model, cited from earlier work; for renal effects (albuminuria, azotemia, renovascular hypertrophy, glomerular injury, PAI-1 and osteopontin mRNA, tubulointerstitial fibrosis): angiotensin II and high salt.
In test [2] the test system is patients with primary aldosteronism. As to conditions: oral; cited from earlier work.
A further test deals with T1, human CYP11B2 (Homo sapiens, UniProt P19099).
T1 construct: expressed in transfected cells
T1 sequence (P19099 25-503): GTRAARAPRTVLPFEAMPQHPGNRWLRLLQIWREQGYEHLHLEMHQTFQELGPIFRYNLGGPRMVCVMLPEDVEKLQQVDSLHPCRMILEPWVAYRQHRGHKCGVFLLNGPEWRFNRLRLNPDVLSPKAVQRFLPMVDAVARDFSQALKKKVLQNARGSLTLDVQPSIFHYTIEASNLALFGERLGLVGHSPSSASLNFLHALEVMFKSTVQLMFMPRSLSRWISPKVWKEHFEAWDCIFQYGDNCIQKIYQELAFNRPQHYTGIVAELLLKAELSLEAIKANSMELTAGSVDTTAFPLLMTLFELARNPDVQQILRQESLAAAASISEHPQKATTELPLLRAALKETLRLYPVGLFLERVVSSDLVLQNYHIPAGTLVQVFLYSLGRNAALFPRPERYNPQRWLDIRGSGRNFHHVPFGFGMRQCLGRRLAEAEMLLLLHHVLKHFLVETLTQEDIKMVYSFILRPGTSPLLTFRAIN
Kind of test: G-402 cellular enzyme assay, human CYP11B2 (aldosterone release, HTRF). Type of test: cell-based. As to conditions: G-402 cells expressing human CYP11B2; 1 μM Deoxycorticosterone; 16 h. The method in brief:
(§1)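 G-402 cells stably expressing human CYP11B2 or CYP11B1, incubated 16 h with compound in DMEM/F12 with 2.5% charcoal-treated FCS plus 1 μM deoxycorticosterone (CYP11B2) or 1 μM deoxycortisol (CYP11B1). Aldosterone or cortisol in supernatant measured by HTRF; EC50 from 4-parameter MMF fit.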
A general note: In TR-FRET formats the signal depends on donor and acceptor labels being close together.

Another test concerns the target T2, human CYP11B1 (Homo sapiens, UniProt P15538).
T2 construct: expressed in transfected cells
T2 sequence (P15538 25-503): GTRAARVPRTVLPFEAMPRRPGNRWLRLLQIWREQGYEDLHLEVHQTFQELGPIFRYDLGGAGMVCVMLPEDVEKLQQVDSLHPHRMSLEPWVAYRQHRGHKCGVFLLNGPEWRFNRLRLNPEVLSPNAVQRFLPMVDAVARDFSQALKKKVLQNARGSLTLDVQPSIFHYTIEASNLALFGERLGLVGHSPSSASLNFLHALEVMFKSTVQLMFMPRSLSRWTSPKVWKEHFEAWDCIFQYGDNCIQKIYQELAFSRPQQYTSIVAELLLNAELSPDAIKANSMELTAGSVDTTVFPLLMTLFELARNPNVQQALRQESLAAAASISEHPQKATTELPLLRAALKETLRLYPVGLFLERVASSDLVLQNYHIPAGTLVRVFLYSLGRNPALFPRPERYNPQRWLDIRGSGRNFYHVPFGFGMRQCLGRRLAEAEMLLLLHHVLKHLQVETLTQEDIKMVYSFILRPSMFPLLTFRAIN
The test is described as follows: G-402 cellular enzyme assay, human CYP11B1 (cortisol release, HTRF). To be noted: G-402 cells expressing human CYP11B1; 1 μM Deoxycortisol; 16 h. The test is classed as cell-based. The method in brief: as §1

In test [3] the test system is rats with experimental heart failure. As to conditions: cited from earlier work.

Take `CC(=O)S[C@@H]1CC2=CC(=O)CC[C@]2(C)[C@H]2CC[C@@]3(C)[C@@H](CC[C@@]34CCC(=O)O4)[C@H]12` [spironolactone]: in test [1], the “renal effects (albuminuria, azotemia, renovascular hypertrophy, glomerular injury, PAI-1 and osteopontin mRNA, tubulointerstitial fibrosis)” value is given as “prevented”; the “angiotensin II and salt-stimulated PAI-1 mRNA expression in the aorta and the heart” value is listed as “enhanced”; the “cardiac and aortic medial hypertrophy” value is on record as “attenuated”. Also, in test [1] (at 4 and 8 weeks of treatment), the aldosterone entry is listed as “increased”.

As to `N#Cc1ccc([C@H]2CCc3cncn32)c(F)c1` [LCI699], in test [2], the blood pressure entry was “mildly decreased”, the circulating aldosterone levels result is on record as “significantly lower” and the hypokalemia entry is on record as “corrected”.

`CCC(C)n1cncc1C(=O)c1ccc(Cl)cc1` (stereo not drawn) [Example 17]: the pEC50 at human CYP11B2 was 9.52; at human CYP11B1 it was 8.46.

As for `CC(=O)N(C)c1ccc(C(=O)c2cncn2C(C)C)cc1` [Example 59, N-[4-(3-Isopropyl-3H-imidazole-4-carbonyl)-phenyl]-N-methyl-acetamide], the results for the negative logarithm of the EC50 (pEC50) on human CYP11B2 and on human CYP11B1 were 7.29 and 5.30, respectively.

`C#Cc1ccc(C(=O)c2cncn2C(C)C)cc1` [Example 54, (4-Ethynyl-phenyl)-(3-isopropyl-3H-imidazol-4-yl)-methanone]: the values for the pEC50 at human CYP11B2 and on human CYP11B1 were 9.30 and 8.17, respectively.

In the case of `CCn1cncc1C(=O)c1ccc2c(c1)CCC(=O)N2C` [Example 26, 6-(3-Ethyl-3H-imidazole-4-carbonyl)-1-methyl-3,4-dihydro-1H-quinolin-2-one], the pEC50 on human CYP11B2 was 7.71; on human CYP11B1 it was 5.95.

As to `CCn1cncc1C(=O)c1ccc(C(F)(F)F)cc1` [Example 36, (3-Ethyl-3H-imidazol-4-yl)-(4-trifluoromethyl-phenyl)-methanone], the pEC50 is 7.23 on human CYP11B2 and 5.76 on human CYP11B1.

`CCn1cncc1C(=O)c1cccc(C#N)c1` [Example 56, 3-(3-Ethyl-3H-imidazole-4-carbonyl)-benzonitrile]: the values for the pEC50 at human CYP11B2 and on human CYP11B1 were 6.96 and 5.92, respectively.

In the case of `Cn1cncc1C(=O)c1ccc(F)c(Cl)c1` [Example 32, (3-Chloro-4-fluoro-phenyl)-(3-methyl-3H-imidazol-4-yl)-methanone], the pEC50 was 7.93 at human CYP11B2 and 6.52 on human CYP11B1.

Regarding `COc1cc(C(=O)c2cncn2C2CC2)ccc1SC` [Example 62, (3-Cyclopropyl-3H-imidazol-4-yl)-(3-methoxy-4-methylsulfanyl-phenyl)-methanone], the values for the pEC50 at human CYP11B2 and at human CYP11B1 were 8.55 and 7.34, respectively.

As to `CC(C)n1cncc1C(=O)c1ccc(C#N)c(Cl)c1` [Example 49, 2-Chloro-4-(3-isopropyl-3H-imidazole-4-carbonyl)-benzonitrile], the pEC50 at human CYP11B2 was 9.70; on human CYP11B1, 9.00.

On to `N#Cc1ccc(C2CCCc3cncn32)cc1` (stereo not drawn) [FAD286], for which the plasma aldosterone result in test [1] (4 weeks of treatment) is listed as “reduced”. Moreover, in test [1], the “renal effects (albuminuria, azotemia, renovascular hypertrophy, glomerular injury, PAI-1 and osteopontin mRNA, tubulointerstitial fibrosis)” value was “prevented”; the “angiotensin II and salt-stimulated PAI-1 mRNA expression in the aorta and the heart” value is “not”; the “cardiac and aortic medial hypertrophy” value is given as “attenuated”. For the same molecule, in test [3], the “blood pressure and cardiovascular function and structure” value was “improved”; the “kidney function and morphology” value is “improve”.

With `COc1cc(C(=O)c2cncn2C(C)C)ccc1SC` [Example 61, (3-Isopropyl-3H-imidazol-4-yl)-(3-methoxy-4-methylsulfanyl-phenyl)-methanone], the pEC50 is 9.70 at human CYP11B2 and 8.06 at human CYP11B1.

In the case of `CCC(C)n1cncc1C(=O)c1cccc(Cl)c1` (stereo not drawn) [Example 28, (3-sec-Butyl-3H-imidazol-4-yl)-(3-chloro-phenyl)-methanone], the pEC50 at human CYP11B2 is 7.85; on human CYP11B1, 7.64.

With `O=C(c1ccc(F)c(Cl)c1)c1cncn1C1CC1` [Example 41, (3-Chloro-4-fluoro-phenyl)-(3-cyclopropyl-3H-imidazol-4-yl)-methanone], the figures for the pEC50 on human CYP11B2 and on human CYP11B1 were 8.46 and 7.68, respectively.

On to `CCn1cncc1C(=O)c1ccc(N(C)C(C)=O)cc1` [Example 67, N-[4-(3-Ethyl-3H-imidazole-4-carbonyl)-phenyl]-N-methyl-acetamide], for which the pEC50 on human CYP11B2 was 6.54; on human CYP11B1 it was 5.00.

For `CC(C)n1cncc1C(=O)c1ccc(SC(F)(F)F)cc1` [Example 75, (3-Isopropyl-3H-imidazol-4-yl)-(4-trifluoromethylsulfanyl-phenyl)-methanone], the pEC50 on human CYP11B2 was 7.05; on human CYP11B1, 6.12.

As to `N#Cc1ccc(-n2cncc2C(=O)c2ccc(Cl)cc2)cc1Cl` [Example 77, 2-Chloro-4-[5-(4-chloro-benzoyl)-imidazol-1-yl]-benzonitrile], the pEC50 was 8.72 at human CYP11B2 and 8.01 on human CYP11B1.

On to `C#Cc1ccc(C(=O)c2cncn2CC)cc1` [Example 48, (3-Ethyl-3H-imidazol-4-yl)-(4-ethynyl-phenyl)-methanone], for which the negative logarithm of the EC50 (pEC50) at human CYP11B2 was 8.37; on human CYP11B1, 7.48.
